Test results taken from ChEMBL document CHEMBL1201862, “PubChem BioAssay data set” (2004).
Calls of active or inactive are those of the source.

Columns and labels:
[1] = tested on: HEK293; test: inhibition of NOD1-driven NF-kB reporter – cell-based, luminescence, uHTS, primary screen (AID 1578); format: functional; conditions: Homo sapiens
[2] = tested on: HEK293; test: cells; format: functional, cell-based; conditions: Homo sapiens
[3] = tested on: HEK293; test: cells; format: functional, cell-based; conditions: Homo sapiens; remark: listed apart in the source
[4] = tested on: HEK293; test: NOD2 signaling inhibitors in MDP-stimulated cells, cell-based, uHTS, luminescence (AID 2001); format: functional; conditions: Homo sapiens
[5] = target: Tumor necrosis factor (Homo sapiens, UniProt P01375); test: analog potency on TNFa NF-kB signaling – cell-based, revised, SAR follow-up (AID 2337); format: functional
[6] = target: Nucleotide-binding oligomerization domain-containing protein 1 (Homo sapiens, UniProt Q9Y239); test: blockers of NOD1 pathway activity – revised, SAR follow-up (AID 2333); format: functional
Chain of Nucleotide-binding oligomerization domain-containing protein 1 (Q9Y239 whole entry, the tested form may be a part): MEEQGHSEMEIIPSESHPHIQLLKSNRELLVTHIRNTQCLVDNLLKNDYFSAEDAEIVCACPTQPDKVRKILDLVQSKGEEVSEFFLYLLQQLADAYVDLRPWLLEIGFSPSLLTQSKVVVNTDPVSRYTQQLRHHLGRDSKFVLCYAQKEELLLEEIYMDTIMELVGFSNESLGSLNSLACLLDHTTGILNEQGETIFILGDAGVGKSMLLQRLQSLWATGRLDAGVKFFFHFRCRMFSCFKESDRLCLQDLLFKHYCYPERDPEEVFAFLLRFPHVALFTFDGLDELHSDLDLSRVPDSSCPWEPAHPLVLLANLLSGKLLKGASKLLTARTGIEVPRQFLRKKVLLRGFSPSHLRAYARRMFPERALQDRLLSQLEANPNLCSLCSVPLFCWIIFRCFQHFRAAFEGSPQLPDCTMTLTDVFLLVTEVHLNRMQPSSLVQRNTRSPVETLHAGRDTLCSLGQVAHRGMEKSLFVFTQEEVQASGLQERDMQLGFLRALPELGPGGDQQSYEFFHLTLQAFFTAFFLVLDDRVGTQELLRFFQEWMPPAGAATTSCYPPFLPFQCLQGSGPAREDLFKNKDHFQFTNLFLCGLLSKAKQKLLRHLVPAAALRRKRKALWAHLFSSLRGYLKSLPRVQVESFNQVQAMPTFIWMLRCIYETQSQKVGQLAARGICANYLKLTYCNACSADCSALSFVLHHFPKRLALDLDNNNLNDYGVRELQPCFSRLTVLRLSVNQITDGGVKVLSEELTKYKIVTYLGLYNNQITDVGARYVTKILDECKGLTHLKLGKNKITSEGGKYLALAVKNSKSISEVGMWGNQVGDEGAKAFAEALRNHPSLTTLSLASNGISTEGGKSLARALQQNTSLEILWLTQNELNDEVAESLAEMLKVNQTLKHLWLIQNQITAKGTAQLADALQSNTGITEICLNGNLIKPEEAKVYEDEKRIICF

[7] = target: Nucleotide-binding oligomerization domain-containing protein 2 (Homo sapiens, UniProt Q9HC29); test: PubChem AID 2334; format: functional
Chain of Nucleotide-binding oligomerization domain-containing protein 2 (Q9HC29 whole entry, the tested form may be a part): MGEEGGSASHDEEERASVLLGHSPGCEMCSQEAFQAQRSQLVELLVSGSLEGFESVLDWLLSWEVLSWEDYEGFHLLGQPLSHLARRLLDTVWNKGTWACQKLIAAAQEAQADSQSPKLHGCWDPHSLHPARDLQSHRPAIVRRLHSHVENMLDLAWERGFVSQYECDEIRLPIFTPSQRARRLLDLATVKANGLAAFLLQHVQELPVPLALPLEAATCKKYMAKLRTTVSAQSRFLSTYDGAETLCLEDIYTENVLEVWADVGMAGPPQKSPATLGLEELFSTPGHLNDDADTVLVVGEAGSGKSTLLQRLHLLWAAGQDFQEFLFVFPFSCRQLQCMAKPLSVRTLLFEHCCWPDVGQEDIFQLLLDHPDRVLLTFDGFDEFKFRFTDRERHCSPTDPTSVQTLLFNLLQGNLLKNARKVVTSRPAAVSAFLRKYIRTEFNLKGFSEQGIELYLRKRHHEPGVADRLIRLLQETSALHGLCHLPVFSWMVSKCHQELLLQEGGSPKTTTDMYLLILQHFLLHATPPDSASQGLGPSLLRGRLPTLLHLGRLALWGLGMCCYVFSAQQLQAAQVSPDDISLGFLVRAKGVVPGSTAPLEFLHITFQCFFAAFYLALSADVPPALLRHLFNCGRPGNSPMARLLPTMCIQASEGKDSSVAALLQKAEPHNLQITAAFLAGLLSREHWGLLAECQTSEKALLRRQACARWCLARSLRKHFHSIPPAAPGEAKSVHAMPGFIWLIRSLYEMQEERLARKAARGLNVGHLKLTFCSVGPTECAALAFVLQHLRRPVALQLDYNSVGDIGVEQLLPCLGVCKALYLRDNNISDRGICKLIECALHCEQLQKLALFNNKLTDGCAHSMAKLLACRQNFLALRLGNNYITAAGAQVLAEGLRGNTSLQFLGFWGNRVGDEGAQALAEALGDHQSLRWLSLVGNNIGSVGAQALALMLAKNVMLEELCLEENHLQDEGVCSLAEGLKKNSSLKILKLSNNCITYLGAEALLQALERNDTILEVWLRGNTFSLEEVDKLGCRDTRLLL

[8] = target: T1, Long-chain-fatty-acid--AMP ligase FadD28 (Mycobacterium tuberculosis, UniProt P9WQ59); test: Fluorescence polarization aasay to screen for inhibitors that compete for the binding of FadD28 to a bisubstrate Measured in Biochemical System Using Plate Reader - 2147-01_Inhibitor_Dose_CherryPick_Activity.; format: functional, Mycobacterium tuberculosis H37Rv
T1 sequence (P9WQ59 whole entry): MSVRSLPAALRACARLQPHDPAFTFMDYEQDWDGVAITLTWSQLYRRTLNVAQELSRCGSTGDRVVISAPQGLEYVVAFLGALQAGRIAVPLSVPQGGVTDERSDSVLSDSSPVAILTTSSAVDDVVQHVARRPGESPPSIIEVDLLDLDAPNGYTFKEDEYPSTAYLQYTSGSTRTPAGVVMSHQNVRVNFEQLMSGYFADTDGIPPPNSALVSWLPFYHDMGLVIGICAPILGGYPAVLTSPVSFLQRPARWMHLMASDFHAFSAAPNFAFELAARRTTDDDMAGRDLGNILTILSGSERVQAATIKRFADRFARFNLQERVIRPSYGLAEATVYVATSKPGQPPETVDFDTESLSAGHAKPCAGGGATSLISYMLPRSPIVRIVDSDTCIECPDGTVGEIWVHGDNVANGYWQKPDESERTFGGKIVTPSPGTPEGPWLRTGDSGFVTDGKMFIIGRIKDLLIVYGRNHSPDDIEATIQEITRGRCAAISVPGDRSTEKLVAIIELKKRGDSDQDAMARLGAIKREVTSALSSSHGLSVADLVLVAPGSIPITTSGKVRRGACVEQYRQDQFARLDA

[9] = tested on: HEK293; test: cells; conditions: Homo sapiens
[10] = tested on: Escherichia coli; test: microbe, parasite or virus in culture
[11] = target: G-protein coupled receptor 35 (Homo sapiens, UniProt Q9HC97); test: SAR Analysis for the identification of Selective Antagonists of ERK1/2 Activity in GPR35-Overexpressing U2OS Cells. [Related pubchem assays: 2079, 2058 ]; format: functional, cell-based
Chain of G-protein coupled receptor 35 (Q9HC97 whole entry): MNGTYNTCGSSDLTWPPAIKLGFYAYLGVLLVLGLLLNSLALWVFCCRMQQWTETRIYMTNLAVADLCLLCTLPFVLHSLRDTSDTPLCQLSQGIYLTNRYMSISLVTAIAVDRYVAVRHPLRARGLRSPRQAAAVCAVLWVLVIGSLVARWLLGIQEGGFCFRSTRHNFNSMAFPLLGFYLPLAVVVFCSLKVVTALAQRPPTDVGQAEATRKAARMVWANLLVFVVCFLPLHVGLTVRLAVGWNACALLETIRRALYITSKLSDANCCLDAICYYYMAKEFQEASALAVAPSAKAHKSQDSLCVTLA

[12] = target: G-protein coupled receptor 55 (Homo sapiens, UniProt Q9Y2T6); test: blockers of GPR55 signalling, imaged – imaging, image-based, counter-screen for GPR35 antagonist project, SAR follow-up (AID 2397); format: functional
Chain of G-protein coupled receptor 55 (Q9Y2T6 whole entry): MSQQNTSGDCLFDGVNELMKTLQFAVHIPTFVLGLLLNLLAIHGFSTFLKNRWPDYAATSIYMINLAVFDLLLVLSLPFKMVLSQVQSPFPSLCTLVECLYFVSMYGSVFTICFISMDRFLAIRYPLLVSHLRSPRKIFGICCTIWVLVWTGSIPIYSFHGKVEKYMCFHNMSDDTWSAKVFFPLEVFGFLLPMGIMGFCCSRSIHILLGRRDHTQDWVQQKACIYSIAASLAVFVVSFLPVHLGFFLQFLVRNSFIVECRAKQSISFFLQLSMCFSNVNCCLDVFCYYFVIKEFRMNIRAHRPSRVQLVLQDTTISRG

[13] = HEK-293T cell viability reduction – luminescence, B-cell screen hits, cytotoxicity control for BCR NF-kB inhibitor project, dose response (AID 489021); format: functional, cell-based;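 further: HEK-293T cells carrying an NF-kB luciferase reporter; cells exposed to compound for about 14 hours before viability readout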
[14] = tested on: BJ; test: BJ-TERT fibroblast viability loss – cell-based, RAS-independent, luminescence, dose response (AID 1933); format: functional; conditions: Homo sapiens
[15] = tested on: BJ; test: cells; format: functional, cell-based; conditions: Homo sapiens
[16] = tested on: BJ; test: BJ-TERT-LT-ST fibroblast viability loss – cell-based, RAS-independent, luminescence, dose response (AID 1935); format: functional; conditions: Homo sapiens;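 further: BJ fibroblasts immortalized with TERT plus LT and ST oncogenes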
[17] = DRD fibroblast viability loss – cell-based, non-viral oncogenic, luminescence, dose response (AID 1934); format: functional; conditions: Homo sapiens
[18] = target: Intestinal-type alkaline phosphatase (Mus musculus, UniProt P24822); test: PubChem AID 488785; format: functional
[19] = target: T2, Alkaline phosphatase, tissue-nonspecific isozyme (Homo sapiens, UniProt P05186); test: TNAP enzyme inhibition by screening hits, dose response, selectivity assay for mouse IAP inhibitor project, biochemical, human TNAP, uHTS hits (AID 488906); format: functional
T2 sequence (P05186 whole entry): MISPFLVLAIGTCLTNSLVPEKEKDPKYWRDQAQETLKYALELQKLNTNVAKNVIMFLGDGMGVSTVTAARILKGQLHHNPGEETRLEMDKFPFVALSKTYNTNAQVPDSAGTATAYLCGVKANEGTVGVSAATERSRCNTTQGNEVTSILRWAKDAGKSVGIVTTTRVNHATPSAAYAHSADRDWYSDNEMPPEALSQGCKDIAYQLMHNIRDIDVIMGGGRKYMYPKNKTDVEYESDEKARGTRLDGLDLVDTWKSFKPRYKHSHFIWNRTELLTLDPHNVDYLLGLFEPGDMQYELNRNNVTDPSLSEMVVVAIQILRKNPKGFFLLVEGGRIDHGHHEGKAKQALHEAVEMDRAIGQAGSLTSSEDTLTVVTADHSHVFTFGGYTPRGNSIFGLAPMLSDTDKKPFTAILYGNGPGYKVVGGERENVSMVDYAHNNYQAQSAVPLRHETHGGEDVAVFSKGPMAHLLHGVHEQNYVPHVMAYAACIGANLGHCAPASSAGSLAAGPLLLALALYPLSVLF

[20] = target: Intestinal-type alkaline phosphatase (Homo sapiens, UniProt P09923); test: inhibition of human intestinal alkaline phosphatase – biochemical, dose response (AID 488876); format: functional
[21] = target: T3, Leucine aminopeptidase (Plasmodium falciparum 3D7, UniProt Q8IL11); test: P. falciparum M17LAP inhibitors, primary screen, biochemical, fluorogenic H-Leu-NHMec substrate, 1536-well (AID 1619); format: functional
T3 sequence (Q8IL11 whole entry): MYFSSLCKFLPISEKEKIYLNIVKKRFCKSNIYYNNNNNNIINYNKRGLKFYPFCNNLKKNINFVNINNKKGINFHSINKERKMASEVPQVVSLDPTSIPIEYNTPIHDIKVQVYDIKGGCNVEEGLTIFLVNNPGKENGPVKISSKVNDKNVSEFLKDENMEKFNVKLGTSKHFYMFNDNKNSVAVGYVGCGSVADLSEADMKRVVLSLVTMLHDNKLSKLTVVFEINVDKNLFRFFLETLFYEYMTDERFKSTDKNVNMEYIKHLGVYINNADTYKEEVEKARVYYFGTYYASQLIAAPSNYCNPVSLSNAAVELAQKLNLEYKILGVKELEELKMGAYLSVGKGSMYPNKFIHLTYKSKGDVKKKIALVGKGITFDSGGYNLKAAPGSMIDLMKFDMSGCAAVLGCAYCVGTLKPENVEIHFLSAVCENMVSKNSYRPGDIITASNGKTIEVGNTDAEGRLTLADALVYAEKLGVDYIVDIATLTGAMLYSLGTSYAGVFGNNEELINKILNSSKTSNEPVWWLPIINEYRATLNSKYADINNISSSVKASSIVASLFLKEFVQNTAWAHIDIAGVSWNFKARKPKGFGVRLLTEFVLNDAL

[22] = target: T4, Heat shock 70 kDa protein 1A (Homo sapiens, UniProt P0DMV8); test: small-molecule inhibition of Hsp70 – biochemical, TR-FRET (AID 786)
T4 sequence (P0DMV8 whole entry): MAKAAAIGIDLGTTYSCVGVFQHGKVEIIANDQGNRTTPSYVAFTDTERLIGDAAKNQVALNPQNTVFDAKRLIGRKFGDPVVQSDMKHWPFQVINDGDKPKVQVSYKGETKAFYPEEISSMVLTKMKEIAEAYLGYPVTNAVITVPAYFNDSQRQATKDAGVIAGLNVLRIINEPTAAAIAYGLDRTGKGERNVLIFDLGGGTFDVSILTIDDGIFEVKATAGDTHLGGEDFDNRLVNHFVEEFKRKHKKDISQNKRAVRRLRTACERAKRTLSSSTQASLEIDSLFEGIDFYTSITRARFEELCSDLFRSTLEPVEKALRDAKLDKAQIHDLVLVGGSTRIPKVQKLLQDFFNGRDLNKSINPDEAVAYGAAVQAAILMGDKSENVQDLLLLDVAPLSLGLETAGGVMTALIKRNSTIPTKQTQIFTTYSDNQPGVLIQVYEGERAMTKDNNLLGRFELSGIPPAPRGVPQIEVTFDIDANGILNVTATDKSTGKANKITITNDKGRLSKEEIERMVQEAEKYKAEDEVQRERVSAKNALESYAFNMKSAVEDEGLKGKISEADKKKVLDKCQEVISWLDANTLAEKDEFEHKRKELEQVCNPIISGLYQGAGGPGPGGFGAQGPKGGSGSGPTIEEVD

[23] = target: T5, Dual specificity protein phosphatase 3 (Homo sapiens, UniProt P51452); test: VHR1 phosphatase inhibitors, primary screen, biochemical, absorbance, uHTS (AID 1654)
T5 sequence (P51452 whole entry): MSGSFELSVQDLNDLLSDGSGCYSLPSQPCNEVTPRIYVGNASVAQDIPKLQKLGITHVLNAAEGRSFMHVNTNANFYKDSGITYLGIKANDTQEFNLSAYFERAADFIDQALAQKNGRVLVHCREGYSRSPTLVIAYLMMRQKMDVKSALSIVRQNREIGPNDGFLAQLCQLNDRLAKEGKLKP

[24] = target: T4, Heat shock 70 kDa protein 1A; test: small molecules displacing fluorescent ligand from Hsp70 – biochemical, fluorescence polarization, primary screen (AID 583)
[25] = target: Guanyl-specific ribonuclease T1 (Aspergillus oryzae (strain ATCC 42149 / RIB 40), UniProt P00651); test: inhibition of ribonuclease T1 activity – biochemical, fluorescence polarization, 1536-well, counter-screen for TPT1 inhibitor project, dose response (AID 2167)
Chain of Guanyl-specific ribonuclease T1 (P00651 whole entry): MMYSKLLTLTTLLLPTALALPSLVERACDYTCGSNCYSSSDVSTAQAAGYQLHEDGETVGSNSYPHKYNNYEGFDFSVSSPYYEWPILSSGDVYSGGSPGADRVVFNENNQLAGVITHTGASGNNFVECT

[26] = target: Mothers against decapentaplegic homolog 3 (Homo sapiens, UniProt P84022); test: inhibitors of SMAD-driven TGF-beta signaling – dose response (AID 715); format: functional
Chain of Mothers against decapentaplegic homolog 3 (P84022 whole entry): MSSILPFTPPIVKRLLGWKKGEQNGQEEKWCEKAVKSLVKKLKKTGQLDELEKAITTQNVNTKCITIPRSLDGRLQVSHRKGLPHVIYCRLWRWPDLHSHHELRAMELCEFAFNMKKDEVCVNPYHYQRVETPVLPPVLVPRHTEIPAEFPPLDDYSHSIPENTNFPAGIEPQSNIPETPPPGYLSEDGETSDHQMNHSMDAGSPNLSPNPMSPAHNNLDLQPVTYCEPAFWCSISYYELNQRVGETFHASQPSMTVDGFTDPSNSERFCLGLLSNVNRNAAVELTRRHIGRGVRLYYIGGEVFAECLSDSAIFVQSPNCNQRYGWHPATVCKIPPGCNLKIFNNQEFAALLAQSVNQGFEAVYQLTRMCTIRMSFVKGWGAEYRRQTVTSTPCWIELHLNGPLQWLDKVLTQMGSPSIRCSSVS

[27] = target: Likely tRNA 2'-phosphotransferase (Candida albicans (strain SC5314 / ATCC MYA-2876) (Yeast), UniProt Q5A7N4); test: inhibition of Candida TPT1 enzyme activity – biochemical, fluorescence polarization, dose response (AID 2160)
Chain of Likely tRNA 2'-phosphotransferase (Q5A7N4 whole entry): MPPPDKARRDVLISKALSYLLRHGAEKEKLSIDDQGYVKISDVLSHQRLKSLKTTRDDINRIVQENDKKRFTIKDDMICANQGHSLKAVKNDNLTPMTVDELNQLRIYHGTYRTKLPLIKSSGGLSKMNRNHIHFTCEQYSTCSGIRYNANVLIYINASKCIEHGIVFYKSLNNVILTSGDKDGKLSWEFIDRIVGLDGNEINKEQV

[28] = target: T4, Heat shock 70 kDa protein 1A; test: inhibition of Hsp70 binding activity – biochemical, fluorescence polarization, SAR follow-up (AID 1072)
[29] = target: T5, Dual specificity protein phosphatase 3; test: VHR1 phosphatase inhibitors, biochemical (AID 1878)
[30] = target: T6, Dual specificity protein phosphatase 6 (Rattus norvegicus, UniProt Q64346); test: inhibition of rat DUSP6 enzyme activity – biochemical, in vitro, primary screen (AID 425)
T6 sequence (Q64346 whole entry): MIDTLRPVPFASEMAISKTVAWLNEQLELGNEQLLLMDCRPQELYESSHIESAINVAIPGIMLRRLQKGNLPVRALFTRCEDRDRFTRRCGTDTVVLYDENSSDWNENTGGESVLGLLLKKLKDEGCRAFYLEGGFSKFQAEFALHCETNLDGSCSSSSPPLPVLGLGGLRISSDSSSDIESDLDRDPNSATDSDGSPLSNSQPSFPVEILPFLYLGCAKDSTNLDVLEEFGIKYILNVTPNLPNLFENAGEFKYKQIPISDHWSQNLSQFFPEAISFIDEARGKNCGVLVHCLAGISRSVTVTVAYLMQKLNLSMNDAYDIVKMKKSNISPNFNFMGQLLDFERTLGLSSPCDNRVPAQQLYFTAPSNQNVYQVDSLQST

[31] = target: Induced myeloid leukemia cell differentiation protein Mcl-1 (Homo sapiens, UniProt Q07820); format: functional
Chain of Induced myeloid leukemia cell differentiation protein Mcl-1 (Q07820 whole entry): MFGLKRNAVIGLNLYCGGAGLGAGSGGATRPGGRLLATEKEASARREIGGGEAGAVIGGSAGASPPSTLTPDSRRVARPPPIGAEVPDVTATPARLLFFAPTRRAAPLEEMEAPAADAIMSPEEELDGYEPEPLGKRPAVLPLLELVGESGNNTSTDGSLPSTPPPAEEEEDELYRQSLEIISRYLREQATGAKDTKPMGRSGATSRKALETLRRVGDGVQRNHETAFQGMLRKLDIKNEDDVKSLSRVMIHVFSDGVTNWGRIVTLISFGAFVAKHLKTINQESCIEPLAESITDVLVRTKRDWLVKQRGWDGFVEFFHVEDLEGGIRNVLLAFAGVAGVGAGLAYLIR

[32] = target: Eukaryotic translation initiation factor 4E (Mus musculus, UniProt P63073); test: blockers of eIF4G binding by eIF4E – biochemical, TR-FRET, dose response (AID 855); format: functional;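 further: potency for disrupting eIF4E binding to eIF4GI seen as loss of FRET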
Chain of Eukaryotic translation initiation factor 4E (P63073 whole entry): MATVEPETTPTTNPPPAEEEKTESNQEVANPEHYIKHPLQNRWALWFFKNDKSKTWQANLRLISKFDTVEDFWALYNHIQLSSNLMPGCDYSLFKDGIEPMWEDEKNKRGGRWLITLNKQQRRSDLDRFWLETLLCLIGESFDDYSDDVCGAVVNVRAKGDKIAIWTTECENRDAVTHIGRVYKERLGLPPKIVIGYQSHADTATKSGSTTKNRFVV

[33] = target: Cytochrome P450 2C9 (Homo sapiens, UniProt P11712); conditions: Potency

## COc1cc(/C=C2/C(=O)NN(c3cccc(Cl)c3)C2=O)cc(Br)c1O
[1]
  EC50: 8.57 µM (active)
[2]
  IC50: > 20 µM (inactive)
[3]
  IC50: > 20 µM (inactive)
[4]
  IC50: > 20 µM (inactive)
[5]
  IC50: > 20 µM (inactive)
[6]
  IC50: 3.49 µM (active)
[7]
  IC50: > 20 µM (inactive)
[8]
  AC50: > 100 µM (inactive)
[9]
  IC50: > 20 µM (inactive)

## COC(C(=O)Nc1ccnn1C1CCN(C(=O)c2ccc(C=O)cc2)CC1)c1ccccc1 (stereo not drawn)
[10]
  AC50: 26.2 µM (active)

## COc1ccc(/C=C2/SC(=S)N(CCCC(=O)Nc3ccc(O)cc3)C2=O)cc1
[11]
  IC50: > 32 µM (not active)
[12]
  IC50: > 32 µM (inactive)
[13]
  IC50: > 80 µM (inactive)

## CC(C)=CCc1c(O)c(CC=C(C)C)c2c(c1O)-c1cc(O)c(O)cc1CC2
[14]
  EC50: 8.58 µM (inconclusive)
[15]
  EC50: > 150 µM (not active)
[16]
  EC50: > 75 µM (inconclusive)
[17]
  EC50: 14.7 µM (active)
[18]
  IC50: 5.45 µM (active)
[19]
  IC50: > 100 µM (inactive)
[20]
  IC50: > 100 µM (inactive)

## O=c1oc2c(O)c(O)cc3c(=O)oc4c(O)c(O)cc1c4c23 [ELLAGIC ACID]
[21]
  IC50: 138 µM (active)
[22]
  IC50: > 100 µM (not active)
[23]
  IC50: < 0.98 µM (inactive)
[24]
  IC50: 0.76 µM (active)
[25]
  IC50: > 55.7 µM (not active)
[26]
  IC50: 0.142 µM (active)
[27]
  IC50: 0.541 µM (active)
[28]
  IC50: > 100 µM (not active)
[29]
  IC50: < 1.23 µM (inactive)
[30]
  IC50: 39.5 µM (active)
[31]
  IC50: > 54 µM (active)
[32]
  IC50: 47.7 µM (inactive)
[33]
  AC50: 39.8 µM (inconclusive)
